Data on one compound can be found in US20050175692A1, “Pharmaceutical formulation comprising melatonin” (Neurim Pharmaceuticals (1991) ltd., priority 2002, published 2005).

Data set [1] deals with volunteers. As to the kind of experiment: Rivermead story (immediate and delayed recall). The class given is in vivo, human. Particulars: compared to placebo and sustained release melatonin 2 mg. From the text: (§1) A battery of performance tests and driving skill tests were given to the patients at pre-selected intervals after the administration of the tablet. These included psychomotor tasks for reaction test, vigilance and co-ordination: ARCI 49, Grooved Pegboard, Rivermead story, picture presentation, simple reaction time, digit vigilance task, choice reaction time, delayed picture recognition, visual tracking, driving simulator: highway driving and wake-EEG.

Data set [2] relates to volunteers. The experiment in a line: Cognitive Drug Research tests (attention, episodic secondary memory, motor co-ordination). In kind it is in vivo, human.
Excerpt: as §1

For data set [3] the following is noted: single evening tablet; melatonin sustained release 2 mg, zolpidem 10 mg. As for the experimental part:
Method. The pharmacokinetics of melatonin (2 mg sustained release formulation), zolpidem (10 mg) and their combination were assessed in 16 volunteers (12 males and 4 females).
Blood samples were withdrawn from the subjects at pre-selected intervals after the administration of the tablets.

Data set [4] concerns volunteers. As to the kind of experiment: Driving simulator: highway driving. To be noted: 2 hours post-dosing. In kind it is in vivo, human.
Excerpt: as §1

Data set [5] relates to volunteers. The experiment in a line: Wake EEG. In kind it is in vivo, human.
Excerpt: as §1

Data set [6] deals with volunteers. The experiment in a line: ARCI 49 (MBG, LSD, PCAG, BG scales). The class given is in vivo, human.
Excerpt: as §1

The test system of data set [7] is volunteers. As to the kind of experiment: Grooved Pegboard. The class given is in vivo, human. To be noted: 1 and 4 hours post-dosing, compared to baseline, placebo and sustained release melatonin 2 mg.
Excerpt: as §1

Data set [8] concerns volunteers. The experiment in a line: Treatment-emergent adverse events in the psychomotor/driving study. On the set-up: species or system human. Particulars: in vivo.
Excerpt: as §1

Molecules are shown by their SMILES.

Regarding `Cc1ccc(-c2nc3ccc(C)cn3c2CC(=O)N(C)C)cc1` [Zolpidem, N,N,6-trimethyl-2-p-toyl-imidazo[1,2,-a]pyridine-3-acetamide L-(+)-tartrate (2:1)], the “Memory efficiency, both recalls (immediate and delayed)” value with volunteers [1] is listed as “decreased”. In addition, the “Cognitive effects compared to placebo” value with volunteers [2] (dosed alone, melatonin SR 2 mg or zolpidem 10 mg) is listed as “several acute impairments”. Further, in the data set with volunteers [2] (zolpidem 10 mg alone vs placebo), the “Time post-dosing by which acute impairments were resolved” value was no more than 12.5 h. Besides, in data set [3], the “Time to maximum, zolpidem in serum, Mean (SD)” value is 1.8 (1.2) h and the “maximum concentration, zolpidem in serum, Mean (SD)” value is recorded as 0.22 (0.11) mcg/ml. In the data set with volunteers [4], the Number of collisions result is “increased number of collisions”. Moreover, the “Alpha activity in driving conditions vs sustained release melatonin alone” value in the data set on volunteers [5] (driving conditions, not different vs placebo) was “significantly increased”. Moreover, in the data set on volunteers [5] (in vivo), the “Theta rhythm on frontal leads vs placebo” value is listed as “increased”. Moreover, the “Alpha activity in resting conditions vs placebo” value in the data set with volunteers [5] (resting conditions) is “decreases in alpha”. Further, the “Sedative effect (increase of the PCAG scale) vs placebo” value in the data set with volunteers [6] (first 4 hours post-dosing) is “strong significant sedative effect”. In addition, the “Time after administration at which PCAG sedative effect reached the maximum” value in the data set with volunteers [6] (in vivo) is on record as “about 4 hour”. The “Duration of task execution (ipsi and contra lateral)” value in the data set on volunteers [7] was “significant increase”. Further, in the data set with volunteers [8], the “Incidence of somnolence compared with melatonin alone and placebo” value is on record as “clearly increased”.
